Laboratory results taken from PubChem BioAssay (NCI).
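Each compound was tested at five concentrations against cells in 96-well plates for 48 hours. At the GI50, growth is halved. TGI marks complete inhibition of growth.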

Legend:
Assay in all cases: NCI tumour cell line growth inhibition, 48 h
[1] = tested on: DMS 273 small cell lung
[2] = tested on: SNB-78 CNS
[3] = tested on: XF 498 CNS
[4] = tested on: P388 leukemia
[5] = tested on: P388/ADR leukemia
[6] = tested on: SN12K1 renal
[7] = tested on: RXF-631 renal

SMILES	TGI [1] [µM]	TGI [2] [µM]	TGI [3] [µM]	other results
COc1ccccc1C1C(Cl)C(=O)N1n1cnc2ccccc2c1=O (configuration not stated)	> 100	> 100	> 100	
O=C(CC(CC(=O)Oc1c(Br)cc(Br)cc1C(=O)O)C(=O)Oc1c(Br)cc(Br)cc1C(=O)O)Oc1c(Br)cc(Br)cc1C(=O)O	> 100	> 100	38.9	
C=C(C)C(=O)O[C@H]1CC2=C[C@@H](C[C@@]3(C)O[C@@H]3[C@H]3OC(=O)C(=C)[C@@H]31)OC2=O	8.09	300		TGI [4]: 15.6 µM; TGI [5]: 11.1 µM; TGI [6]: 12.1 µM; GI50 [2]: 1270 nM
CC(C)(C)OC(=O)N[C@H]1CC(O)c2ccccc2N(CC(=O)O)C1=O (some centres not stated)	> 100		> 100	TGI [7]: > 100 µM
Cc1nc2c(c(=O)[nH]1)S/C(=C(/C#N)c1nc3ccccc3[nH]1)N2c1ccccc1	> 100	> 100	> 100	
Nc1ccccc1Nc1ccccc1C(=O)[O-].Nc1ccccc1Nc1ccccc1C(=O)[O-].[Zn+2]			78.7	
NC(=S)N/N=C/c1nccc2ccccc12	12.9			
CC(=O)OC1CC2CCN3C(=O)c4cc5c(cc4[C@H](C1OC(C)=O)C23)OCO5 (some centres not stated)	> 100	> 100		
NC1=NC2=c3ccccc3=C(c3cnccn3)C2(c2cnccn2)c2ccccc21 (configuration not stated)	> 100	> 100	> 100	
COC(=O)[C@H](Cc1ccccc1)NC(=O)/C(=C/C(C)C)NC(=O)[C@H](CCSC)NC=O	> 100		> 100	
